According to patent US20230105108A1, “COMPOUNDS FOR THE TREATMENT OF BACTERIAL INFECTIONS AND POTENTIATION OF ANTIBIOTICS” (GEORGIA STATE UNIVERSITY RESEARCH FOUNDATION, INC., priority 2019, published 2023):
Counter-ions that a name gives are not always drawn. Like-named read-outs stand apart in the source and are kept apart here.

What was measured:
E. coli (ATCC 25922) = experiment: MIC determination, sensitization fold and FIC index on E. coli; type: cell-based; settings: for MIC of AB with MD-124: MD-124 concentration 5 μg/ml; for MIC: Escherichia coli, ATCC25922, 24 h
Outline: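 E. coli in cation-adjusted Mueller Hinton II, 5×10^5 CFU/ml, 24 h at 37 °C shaking; rifampicin two-fold serial dilutions with or without fixed sensitizer (10 μM).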

[1] = system: A. baumannii (ATCC 17978); experiment: MIC, sensitization fold and FIC index on A. baumannii; type: cell-based; settings: A. baumannii towards the antibiotic
K. pneumoniae (43816) = experiment: MIC, sensitization fold and FIC index on K. pneumoniae; type: cell-based; settings: for MIC of AB with 5 μg/ml MD-124: K. pneumoniae; for Sensitization fold with 5 μg/ml MD-124: K. pneumoniae towards the antibiotic
[2] = system: NDM-1 expressing E. coli strain; experiment: microbe, parasite or virus in culture; type: cell-based; settings: NDM-1 expressing E. coli towards the antibiotic
[3] = Cytotoxicity in H9c2 cells (CCK-8); type: cell-based; settings: rat, H9c2 cells; H9c2 cell line
Outline: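 H9c2 cells were grown in DMEM with 10% FBS, seeded the day before, and exposed to a range of di-amidine concentrations for 24 h at 37 °C, 5% CO2. Viability was read by CCK-8 after 3 h at 37 °C as absorbance at 450 nm.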

M. smegmatis = experiment: MIC on mycobacteria; type: cell-based, Mycobacterium smegmatis; settings: Mycolicibacterium smegmatis, read-out: MIC on mycobacteria
HEK293 cells = experiment: Cytotoxicity on mammalian cells (CCK-8), HEK293; type: cell-based; settings: for CC50: HEK293 cell line, 24 h; for IC50: Homo sapiens, HEK293
Method: (§1) Cytotoxicity test of bacterial sensitizers on mammalian cells. Cell viability was assessed by using Cell Counting Kit-8 (CCK-8, Dojindo, Japan). HEK293 or NIH3T3 cells were seeded in a 96-well plate one day before the experiment to reach 80% confluency. Cells were then incubated with various concentration of bacterial sensitizers at 37° C. with 5% CO2 for 24 h, then 10 μL of CCK-8 solution was added to each well, and the plate was incubated for an additional at 37° C. 2 h with 5% CO2. The optical density at 450 nm was recorded by plate reader; and the results were calculated as a percentage of viability compared with the untreated control.

NIH3T3 cells = experiment: Cytotoxicity on mammalian cells (CCK-8), NIH3T3; type: cell-based; settings: 3T3 cell line; 24 h
Method: as §1

B. subtilis = experiment: MIC determination and sensitization fold on B. subtilis; type: cell-based; settings: B. subtilis; for Sensitization fold: erythromycin
MRSA (ATCC 33592) = experiment: MIC determination and sensitization fold on MRSA; type: cell-based, methicillin-resistant Staphylococcus aureus; settings: MRSA, rifampicin
Method: Bacteria strains: E. coli (ATCC 25922), A. baumannii (ATCC 17978), K. pneumoniae (43816), S. maltophilia (ATCC 31559), S. typhimurium (ATCC 14028), C. werkmanii (ATCC 51114), S. aureus (ATCC 12600) and methicillin-resistant Staphylococcus aureus (MRSA, ATCC 33592) strains were purchased from ATCC. NR698 was provided.
Bacteria culture and MICs determination: Gram-negative bacteria were cultured in Mueller Hinton II cation-adjusted broth. Gram-positive bacteria were cultured in LB broth. Mycobacterium smegmatis was cultured in Middlebrook 7H9 Broth. MICs of antibiotics itself were determined by performing two-fold serial dilutions of antibiotics. MICs of antibiotics in the presence of bacterial sensitizers were determined by performing two-fold serial dilutions of antibiotics with or without a constant concentration of bacterial sensitizers. The MICs tests were performed on 96-well plates with a final volume of 200 μl Mueller Hinton II cation-adjusted broth in each well. Each well was inoculated with 5×10^5 CFU/ml bacteria and was incubated for 24 h at 37° C. with continuous shaking of 200 rpm. The bacterial density was then determined by OD600. Bacterial growth %=OD600 of antibiotic treatment group/OD600 of antibiotic non-treatment group. MICs was determined as the concentrations that inhibit more than 90% of bacteria growth.
Sensitization fold determination and FIC index calculations: Sensitization fold=MIC of antibiotic only/MIC of antibiotic with bacterial sensitizer. […] Since the MICs were determined by performing two-fold serial dilutions of antibiotic, so the sensitization fold can is the times of 2.
Bacteria strains (as indicated in Table 5B) were cultured with rifampicin at various concentrations in the presence or absence of 10 μM of the indicated compound for 20 h at 37° C. The MIC, sensitization, cytotoxicity, and MIC on mycobacteria were tested according to methods described herein. […] The sensitization activities of compounds on MRSA were tested using rifampicin. The sensitization activities of compounds on E. coli were tested using rifampicin.

[4] = Cytotoxicity on mammalian cells (CCK-8), HEK293; type: cell-based; settings: human, HEK293 cells; HEK293 cell line; 24 h
Method: as §1

[5] = Cytotoxicity on mammalian cells (CCK-8), NIH3T3; type: cell-based; settings: mouse, NIH3T3 cells, 3T3 cell line
Method: as §1

[6] = E. coli towards the antibiotic, MD-124 5 μg/ml
[7] = E. coli (wild type), antibiotic alone, read-out: MIC of AB only
[8] = E. coli, rifampicin, compound at 25 μM
[9] = 10 μM compound, rifampicin as the antibiotic (Table 6)
[10] = E. coli, rifampicin, compound at 10 μM

Compound	MIC of AB with MD-124 (E. coli (ATCC 25922); E. coli) [µg/mL]	MIC of AB with 5 μg/ml MD-124 (K. pneumoniae (43816)) [µg/mL]	Sensitization fold (E. coli (ATCC 25922); [8])	CC50 (HEK293 cells) [µM]	CC50 (NIH3T3 cells) [µM]	Sensitization fold (E. coli (ATCC 25922); [9]) [fold]	MIC (E. coli (ATCC 25922)) [µM]	Sensitization fold (E. coli (ATCC 25922); [10])	IC50 (HEK293 cells) [µM]	also measured
O=C(N[C@H](CO)[C@H](O)c1ccc([N+](=O)[O-])cc1)C(Cl)Cl [Chloramphenicol]	1.6	1.6								Sensitization fold (E. coli (ATCC 25922); [6]): 8 fold; MIC (E. coli (ATCC 25922); read-out: MIC of AB only): 12.5 µg/mL; Sensitization fold with 5 μg/ml MD-124 [1]: 4 fold; Sensitization fold with 5 μg/ml MD-124 (K. pneumoniae (43816)): >64 fold; Sensitization fold with 5 μg/ml MD-124 [2]: 8 fold
CCC[C@@H]1C[C@@H](C(=O)N[C@@H]([C@H]2O[C@H](SC)[C@H](O)[C@@H](O)[C@H]2O)[C@H](C)Cl)N(C)C1 [Clindamycin, reference compound]	3.2	25								MIC (E. coli (ATCC 25922); [7]): 200 µg/mL
N=C(N)c1ccc(OCc2cccc(COc3ccc(C(=N)N)cc3F)c2F)c(F)c1 [DB2558, 1,3-Bis {(4-amidino-2-fluoro)-phenoxymethyl}-2-fluorobenzene dihydrochloride]			8-fold at 25 μM;	100	100					CC50 at 24 h [3]: 50 µM; Sensitization fold (E. coli (ATCC 25922); E. coli, rifampicin, compound at 12 μM): 4-fold at 12 μM.; MIC (E. coli (ATCC 25922); E. coli, compound alone, read-out: MIC): 50 µM; MIC (M. smegmatis; M. smegmatis): 6 to 12 µM
CC(=O)O[C@H]1C[C@@]2(C)[C@@H](C[C@@H](O)[C@H]3[C@@]4(C)CC[C@@H](O)[C@@H](C)[C@@H]4CC[C@@]32C)/C1=C(\CCC=C(C)C)C(=O)O [Fusidic acid, reference compound]	6.25	25								Sensitization fold (E. coli (ATCC 25922); [6]): 32 fold; MIC (E. coli (ATCC 25922); [7]): > 200 µg/mL; Sensitization fold with 5 μg/ml MD-124 [1]: 128 fold; Sensitization fold with 5 μg/ml MD-124 (K. pneumoniae (43816)): 4 fold
Cc1cc(COc2ccc(C(=N)NC(C)C)cc2)cc(COc2ccc(C(=N)NC(C)C)cc2)c1 [MD-102, 4,4′-(((5-methyl-1,3-phenylene)bis(methylene))bis(oxy))bis(N-isopropylbenzimidamide) dihydrochloride]						1	50			CC50 at 24 h [3]: > 100 µM; Sensitization (E. coli (ATCC 25922); E. coli, rifampicin, compound up to 25 μM): No effect up to 25 μM.; sensitization activity (E. coli (ATCC 25922); rifampicin, compound at up to 10 μM): no sensitization activity; Sensitization fold (B. subtilis; compound at 2 μM): 4-fold at 2 μM; Sensitization fold (MRSA (ATCC 33592); compound at 4 μM): 32-fold at 4 μM; MIC (M. smegmatis): 3 µM; CC50 at 24 h [4]: > 100 µM; CC50 at 24 h [5]: > 100 µM
Cc1cc(OCc2ccc(C(=N)N)cc2)cc(OCc2ccc(C(=N)N)cc2)c1 [MD-109, 4,4′-(((5-methyl-1,3-phenylene)bis(oxy))bis(methylene))dibenzimidamide dihydrochloride]			32-fold at 25 μM	100	100	8	100	8-fold at 10 μM	100	Sensitization fold (B. subtilis; compound at 12 μM): 32-fold at 12 μM; MIC (B. subtilis; Bacillus subtilis, 24 h, compound alone, read-out: MIC): 50 µM
Cc1cc(COc2ccc(C(=N)N)cc2F)cc(COc2ccc(C(=N)N)cc2F)c1 [MD-120, 4,4′-(((5-methyl-1,3-phenylene)bis(methylene))bis(oxy))bis(3-fluorobenzimidamide) dihydrochloride]			64-fold at 25 μM	100	100	32	100	32-fold at 10 μM	100	Sensitization fold (MRSA (ATCC 33592); compound at 6 μM): 4-fold at 6 μM
COc1cc(OCc2ccc(C(=N)N)cc2)cc(OCc2ccc(C(=N)N)cc2)c1 [MD-126, 4,4′-(((5-methoxy-1,3-phenylene)bis(oxy))bis(methylene))dibenzimidamide dihydrochloride]				100	100	2	> 50	2-fold at 10 μM	100	
